Assay results published in patent US20160193216A1 (Nimbus Iris, Inc., priority 2012, published 2016).
Like-named read-outs stand apart in the source and are kept apart here.

Tests used:
ABC DLBCL Cells = assay: sensitization of ABC DLBCL cells to IRAK inhibitors by BTK knockdown; assay type: cell-based; details: BTK knockdown (FIG. 9)
Source text: FIG. 8 depicts the sensitization of ABC DLBCL Cells to IRAK Inhibitors by BTK knockdown.

GCB DLBCL Cells = assay: sensitization of GCB DLBCL cells by BTK knockdown; assay type: cell-based; details: BTK knockdown (FIG. 10)
THP-1 cells = assay: LPS induced cytokine (TNFα and IL8) production assay in THP-1 cells; assay type: cell-based; details: Homo sapiens, 300 ng/mL LPS
Procedure, shortened: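 THP-1 cells (100,000/well) pre-incubated 1 hour with compound in 0.3% DMSO, then stimulated with 300 ng/mL LPS. TNFα and IL8 in supernatant measured by HTRF at 5 hours; IL8 and viability also at 16 hours.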

Whole Blood = assay: In vitro LPS/R848-induced cytokine production assay in whole blood; assay type: cell-based, human; details: Homo sapiens
Method: (§1) In Vitro LPS/R848/CpG-Induced Cytokine Production Assays in hPBMC or Whole Blood
(§2) Compounds of the present invention were also studied in in vitro LPS/R848/CpG-induced cytokine production assays. Exemplary protocols follow.
(§3) […] Cells were seeded in a 96-well plate with 130 ul/well of the cell suspension according to the plate map. 9 ul of 30 mM compound solution was added into the wells in the assigned rows, then serial solutions with 4× dilutions were made. That is, add 9 uL of 100% DMSO into each of the rest wells and take 3 uL of compound solution from the one-step higher concentration solution and mix well with the DMSO. For the second compound master plate, 196 uL of the growth medium (no serum media) were added into each of the wells and 4 uL of the compound solution from the first compound master plate was added and mixed with the media. Cells were treated for 0.5 h by adding 20 uL of the compound and the control solutions prepared in the second master plate to each well according to the plate map. […] Plates were sealed with sealing films and the plates were centrifuged at 3000 rpm at 4 degrees C. for 5 min. The supernatants were transferred, and 100 ul of working Capture antibody solution was added to each well. The plates were sealed and incubated overnight at RT. IL-6, IFN-α or TNF-α detection antibody labeled with biotin: Added 100 uL of the Detection Antibody solution to each well. Covered the plate and incubated for 2 h at RT. Added 100 uL of Streptavidin-HRP solution to each well. Covered the plate and incubate for 20 min at RT in dark. Added 100 uL of Substrate Solution to each well. Incubated for 20 min at RT in dark. Added 50 uL of Stop Solution to each well. Gently tapped the plate to ensure thorough mixing. Determined the optical density of each well immediately, using a microplate reader set to 450 nm and also read at 540 nm or 570 nm for correction if wavelength correction is not available.

hPBMC = assay: In vitro LPS/R848/CpG/IL-1β-induced cytokine production assay in hPBMC; assay type: cell-based; details: Homo sapiens
Method: as §1, §2, §3

MSU-induced gout = assay: In vivo murine air pouch model of human gout (MSU); details: Balb/c mice, oral twice a day for six days, 10, 30 or 100 mg/kg
Method: In Vivo Murine Air Pouch Model of Human Gout Compounds of the present invention were also evaluated in mice in an in vivo efficacy model for inhibiting monosodium urate (MSU) induced model of gout. An exemplary protocol for this assay follows. A sterile air pouch was created in Balb/c mice. I-67 was administered orally to the mice twice a day for six days at doses of either 10, 30 or 100 mg/kg. Following the last dose the mice were anesthetized and the air pouch was injected with a suspension of monosodium urate (MSU) to induce the inflammatory response. Four hours after the injection the air pouch exudate was collected and the number of white blood cells was measured.

[1] = test system: collagen-induced arthritis; assay: In vivo murine collagen-induced arthritis model; details: DBA mice, vs vehicle
Method: In Vivo Murine Collagen-Induced Arthritis Model Compounds of the present invention were also evaluated in mice in an in vivo efficacy model for inhibiting IRAK4-mediated arthritis. An exemplary protocol for this assay follows. Male DBA mice were immunized with collagen on day 0 and day 21 and randomly enrolled into groups upon onset of disease. […] Eight mice were enrolled per group with the exception of the naïve control group, which contained four mice. Day 1 was designated as the first treatment day, and mice were evaluated daily for clinical scores until day 11. The mice were weighed on alternating days.

ABC DLBCL cell lines = assay: Cell viability assay, combination with ibrutinib; assay type: cell-based
Method: Compounds of the present invention were also evaluated in a cell viability assay.

[2] = R848 1 uM, read-out: TNF-α production IC50

Question: How did the “sensitization of ABC DLBCL Cells to compound by BTK knockdown” value (ABC DLBCL Cells) turn out when NC(=O)C[C@H]1CCc2sc3ncnc(O[C@H]4CC[C@H](N5CCOCC5)CC4)c3c21 [Compound I-67, 2-((R)-4-(((1r,4R)-4-morpholinocyclohexyl)oxy)-6,7-dihydro-5H-cyclopenta[4,5]thieno[2,3-d]pyrimidin-5-yl)acetamide] was run?
Answer: sensitization

Question: What about the “sensitization of GCB DLBCL Cells to compound by BTK Knockdown” value (GCB DLBCL Cells) of the same compound?
Answer: lack of sensitization

Question: And the IC50 (THP-1 cells; read-out: IL8 production IC50)?
Answer: ≤ 500 nM

Question: And the IC50 (THP-1 cells; read-out: TNFα production IC50)?
Answer: 500 to 1000 nM

Question: And the IC50 (Whole Blood; LPS 0.1 ug/mL, read-out: IL-6 production IC50)?
Answer: ≤ 250 nM

Question: What about the IC50 (Whole Blood; R848 1 uM, read-out: IFN-α production IC50) of the same compound?
Answer: ≥ 1000 nM

Question: And the IC50 (Whole Blood; [2])?
Answer: 500 to 1000 nM

Question: What about the IC50 (hPBMC; CpG 0.1 uM, read-out: IFN-α production IC50) of the same compound?
Answer: 500 to 1000 nM

Question: What about the IC50 (hPBMC; CpG 0.5 uM, read-out: TNF-α production IC50) of the same compound?
Answer: 250 to 500 nM

Question: And the IC50 (hPBMC; IL-1β 1 ng/mL, read-out: IL-6 production IC50)?
Answer: 250 to 500 nM

Question: And the IC50 (hPBMC; LPS 0.01 ug/mL, read-out: IL-6 production IC50)?
Answer: ≤ 250 nM

Question: And the IC50 (hPBMC; LPS 0.01 ug/mL, read-out: TNF-α production IC50)?
Answer: 250 to 500 nM

Question: What about the IC50 (hPBMC; [2]) of the same compound?
Answer: 500 to 1000 nM

Question: What about the “Efficacy in MSU-induced gout (white blood cell counts in air pouch exudate)” value (MSU-induced gout) of the same compound?
Answer: efficacious

Question: What about the “Clinical scores, collagen-induced arthritis” value ([1]; intraperitoneally 30 mg/kg twice a day) of the same compound?
Answer: efficacious compared to the vehicle

Question: What about the “Clinical scores, collagen-induced arthritis” value ([1]; orally 30 mg/kg twice a day) of the same compound?
Answer: efficacious compared to the vehicle

Question: And the “Killing of ABC DLBCL cells in combination with ibrutinib” value (ABC DLBCL cell lines)?
Answer: Synergistic killing
